From publication PMC6112376, “Comprehensive Analyses and Prioritization of Tox21 10K Chemicals Affecting Mitochondrial Function by in-Depth Mechanistic Studies” (Environmental Health Perspectives, 2018)
Like-named read-outs stand apart in the source and are kept apart here.

Legend:
HepG2 cells [1] = settings: for IC50: read-out: MMP assays IC50 (µM) HepG2
HepG2 cells [2] = settings: cited from earlier work
rat primary hepatocytes = assay: MMP assay in rat primary hepatocytes; settings: for IC50: read-out: MMP assays IC50 (µM) Rat Hepatocytes
[3] = tested on: isolated rat liver mitochondria; assay: Oxygen consumption, Clark-type oxygen electrode; assay type: biochemical; settings: for I-ADP, % of control (O2 consumption rate): glutamate/malate driven state 3 respiration; for I-ADP, % of control (O2 consumption rate) / I-sub, % of control (O2 consumption rate) / II-ADP, % of control (O2 consumption rate) / II-sub, % of control (O2 consumption rate): isolated rat liver mitochondria; for I-sub, % of control (O2 consumption rate): glutamate/malate driven state 4 respiration; for II-ADP, % of control (O2 consumption rate): succinate-driven state 3 respiration; for II-sub, % of control (O2 consumption rate): succinate-driven state 4 respiration
[4] = HepG2 cells, single number from one experiment
[5] = read-out: MMP assays IC50 (µM), qHTS-HepG2
[6] = rat hepatocytes, mean ± SD of three experiments
[7] = read-out: MMP assays IC50 (µM) qHTS-HepG2

Row | Compound | MMP assays efficacy (%) HepG2 (HepG2 cells [1]; [4]) | MMP assays efficacy (%) qHTS-HepG2 (HepG2 cells [2]) | MMP assays IC50 (µM) Rat Hepatocytes (rat primary hepatocytes; [6]) | MMP assays efficacy (%) Rat Hepatocytes (rat primary hepatocytes; [6]) | IC50 (HepG2 cells [2]; [7]) | IC50 (HepG2 cells [1]; [4]) | IC50 (rat primary hepatocytes; [6]) | other results
1 | C[C@H](/C=C/[C@H](C)C(C)(C)O)[C@H]1CC[C@H]2/C(=C/C=C3C[C@@H](O)C[C@H](O)C3)CCC[C@]12C [Paricalcitol] | inactive | -69±16% | inactive | inactive |  |  |  | MMP assays IC50 (µM) HepG2 (HepG2 cells [1]; [4]): inactive; IC50 (HepG2 cells [2]; [5]): 8.91 ± 1.56 µM
2 | O=C(Nc1ccc([N+](=O)[O-])cc1)Nc1ccc([N+](=O)[O-])cc1 [4,4'-Dinitrodiphenylurea] |  | -79±2% |  |  | 0.46 ± 0.06 µM |  |  | MMP assays efficacy (%) HepG2 (HepG2 cells [1]): -90%; IC50 (HepG2 cells [1]): 0.97 µM; IC50 (rat primary hepatocytes): 0.7 ± 0.46 µM
3 | CC(C)(O)c1ccccc1CC[C@@H](SCC1(CC(=O)O)CC1)c1cccc(/C=C/c2ccc3ccc(Cl)cc3n2)c1 [Montelukast sodium] |  | -72±20% |  |  |  |  |  | MMP assays IC50 (µM) HepG2 (HepG2 cells [1]): inactive; MMP assays efficacy (%) HepG2 (HepG2 cells [1]): inactive; IC50 (rat primary hepatocytes; Rattus norvegicus, Hepatocyte): 24.1 ± 9.54 µM
4 | CO[C@H]1C[C@H](O[C@H]2[C@H](C)O[C@@H](O[C@@H]3/C(C)=C/C[C@@H]4C[C@@H](C[C@]5(C=C[C@H](C)[C@@H](C6CCCCC6)O5)O4)OC(=O)[C@@H]4C=C(C)[C@@H](O)[C@H]5OC/C(=C\C=C\[C@@H]3C)[C@]54O)C[C@@H]2OC)O[C@@H](C)[C@@H]1O [Doramectin] | -117% | -80±13% | inactive | inactive | 11.9 µM | 17.3 µM |  | 
5 | C=CCc1cc(S(=O)(=O)c2ccc(O)c(CC=C)c2)ccc1O | -107% | -114±19% |  | -52±23% | 45 ± 17.9 µM | 15.8 µM | 24.5 ± 19.9 µM | 
6 | CCCCCCCCCCn1cc[n+](C)c1.O=S(=O)([O-])C(F)(F)F [1-Decyl-3-methylimidazolium trifluoromethanesulfonate] | -99% | -57±16% |  | -125±47% | 1.67 ± 2.71 µM | 7.08 µM | 12.1 ± 3.97 µM | 
7 | Cc1cccc(C(C)(C)C)c1O [Phenol, 2-(1,1-dimethylethyl)-6-methyl-] | inactive | inactive | inactive | inactive |  |  |  | MMP assays IC50 (µM) HepG2 (HepG2 cells [1]; [4]): inactive; MMP assays IC50 (µM) qHTS-HepG2 (HepG2 cells [2]): inactive
8 | C[C@@H]1C[C@H]2[C@@H]3CCC4=CC(=O)C=C[C@]4(C)[C@@]3(F)[C@@H](O)C[C@]2(C)[C@@]1(O)C(=O)COC(=O)c1cccc(S(=O)(=O)[O-])c1.[Na+] [Dexamethazone metasulfobenzoate sodium] | inactive | inactive | inactive | inactive |  |  |  | MMP assays IC50 (µM) HepG2 (HepG2 cells [1]; [4]): inactive; MMP assays IC50 (µM) qHTS-HepG2 (HepG2 cells [2]): inactive
9 | CCCCCCCCOc1ccc(C(=O)O)cc1 [4-Octyloxybenzoic acid] | inactive | -100±24% |  | -57±30% | 39.6 ± 31.3 µM |  | 48 ± 11.6 µM | MMP assays IC50 (µM) HepG2 (HepG2 cells [1]; [4]): inactive
10 | O.O.O.O.[Na+].[O-]c1ccccc1-c1ccccc1 [Sodium 2-phenylphenate tetrahydrate] | -77% | -98±8% | inactive | inactive |  | 31.6 µM |  | IC50 (HepG2 cells [2]; [5]): 18.5 µM
11 | CCCCCCCC[n+]1ccn(C)c1.F[P-](F)(F)(F)(F)F [1-Methyl-3-octylimidazolium hexafluorophosphate] | -77% |  |  | -86±43% |  | 25.1 µM | 39.8 µM | 
12 | CCCCCCCCCCCCn1cc[n+](C)c1.F[P-](F)(F)(F)(F)F | -119% |  |  | -111±27% |  | 5.01 µM | 8.81 ± 2.46 µM | 
13 | NNc1nc(-c2ccc([N+](=O)[O-])cc2)cs1 [2-Hydrazino-4-(4-nitrophenyl) thiazole] |  |  |  |  |  |  |  | I-ADP, % of control (O2 consumption rate) ([3]; 20 µM): 103 (50.6) % of control; I-sub, % of control (O2 consumption rate) ([3]; 20 µM): 119 (19.1) % of control; II-ADP, % of control (O2 consumption rate) ([3]; 20 µM): 98 (76.1) % of control; II-sub, % of control (O2 consumption rate) ([3]; 20 µM): 99 (30.4) % of control; I-ADP, % of control (O2 consumption rate) ([3]; 100 µM): 61 (32.3) % of control; I-sub, % of control (O2 consumption rate) ([3]; 100 µM): 159 (21.4) % of control; II-ADP, % of control (O2 consumption rate) ([3]; 100 µM): 114 (77.1) % of control; II-sub, % of control (O2 consumption rate) ([3]; 100 µM): 153 (33.1) % of control; Potential Mechanism ([3]; mitochondrial respiration in isolated rat liver mitochondria, Clark type oxygen electrode, over tested concentrations): Uncoupler + inhibitor
14 | CCCCCCCCCCCCCC[P+](CCCCCC)(CCCCCC)CCCCCC.F[P-](F)(F)(F)(F)F [Trihexyltetradecylphosphonium hexafluorophosphate] | -91% |  | inactive | inactive |  | 1.12 µM |  | 
